Molecules are shown by their SMILES. The source made the active and inactive calls. A value given as a limit tells only on which side of the number the result lay.

The subject of assay [1] is Streptococcus sp. 'group A'. The assay is described as follows: Streptococcus pyogenes SK(-)GAS viability under kanamycin – luminescence, BacTiterGlo, confirmation, counter-screen for streptokinase expression inhibitor project, dose response (AID 1900). It is filed as functional, organism-based. A general note: Counterscreens check selectivity or assay interference.
A further assay addresses T1, Streptokinase A (Streptococcus pyogenes serotype M1, UniProt P10520).
T1 sequence (P10520 whole entry): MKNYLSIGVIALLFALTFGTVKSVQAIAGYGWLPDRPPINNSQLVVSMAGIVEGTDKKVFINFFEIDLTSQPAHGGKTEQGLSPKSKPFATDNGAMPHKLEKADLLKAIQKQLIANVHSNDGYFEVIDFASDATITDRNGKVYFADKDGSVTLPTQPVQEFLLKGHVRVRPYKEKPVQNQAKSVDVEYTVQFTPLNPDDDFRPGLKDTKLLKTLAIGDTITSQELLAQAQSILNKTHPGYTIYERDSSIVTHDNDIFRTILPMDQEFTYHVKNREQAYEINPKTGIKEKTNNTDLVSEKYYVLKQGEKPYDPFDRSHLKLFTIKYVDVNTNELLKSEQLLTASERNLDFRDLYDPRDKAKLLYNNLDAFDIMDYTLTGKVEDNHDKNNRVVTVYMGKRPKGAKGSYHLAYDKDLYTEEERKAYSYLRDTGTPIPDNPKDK
Briefly: viability-normalized secreted streptokinase activity reduction – plasminogen activation absorbance, OD405, dose response (AID 1914).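 Note: secreted streptokinase activity via plasminogen activation per viability signal from cell pellet.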 It is filed as functional, Streptococcus pyogenes M1 GAS.

Assay [2] in a line: Trypanosoma cruzi growth suppression in host cells – NIH3T3 host cells, beta-gal luminescence, confirmation (AID 2044).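 Note: intracellular parasites grown in NIH/3T3 mouse fibroblasts as host cells; luminescent beta-galactosidase reporter signal from transgenic T. cruzi replicating inside host cells; inhibitors lower the luminescence signal.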 It is filed as functional, cell-based.
Assay [3] can be described thus: NIH3T3 cell viability loss – ATP luminescence, mouse fibroblasts, counter-screen, dose response (AID 2010).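 Note: cells exposed to compound for about 90 hours before reading.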 It is filed as functional, cell-based.
The next assay deals with Streptococcus. Briefly: GAS UMAA2166 growth inhibition – luminescence, BacTiterGlo, counter-screen for streptokinase expression inhibitor project, dose response (AID 1915).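 Note: potency for reduction of bacterial viability or growth.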 It is filed as functional, organism-based.
Another assay concerns the target Cytochrome P450 2D6 (Homo sapiens, UniProt P10635).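 Note: CYP2D6 member of a cytochrome P450 panel assay.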
Assay [4] deals with T2, Heat shock factor protein 1 (Mus musculus, UniProt P38532).
T2 sequence (P38532 whole entry): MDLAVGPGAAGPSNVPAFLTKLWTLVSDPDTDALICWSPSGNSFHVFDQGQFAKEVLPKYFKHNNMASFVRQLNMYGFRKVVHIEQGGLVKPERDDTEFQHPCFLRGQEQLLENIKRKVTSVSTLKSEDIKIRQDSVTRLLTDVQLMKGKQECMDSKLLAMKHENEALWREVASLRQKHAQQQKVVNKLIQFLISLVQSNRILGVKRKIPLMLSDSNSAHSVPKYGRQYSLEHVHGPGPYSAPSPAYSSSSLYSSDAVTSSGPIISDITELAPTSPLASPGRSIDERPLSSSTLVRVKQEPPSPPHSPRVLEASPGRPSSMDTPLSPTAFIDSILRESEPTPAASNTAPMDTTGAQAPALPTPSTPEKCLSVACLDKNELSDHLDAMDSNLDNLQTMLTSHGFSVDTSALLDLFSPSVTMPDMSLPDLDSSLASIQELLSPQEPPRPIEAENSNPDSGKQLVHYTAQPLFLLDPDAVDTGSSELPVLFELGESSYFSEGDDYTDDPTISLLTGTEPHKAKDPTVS
The assay is described as follows: enhancement of HSF1-driven luciferase signal – cell-based, NIH3T3, luminescence, dose retest, confirmation (AID 435004).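 Note: stress induced by proteasome inhibitor MG132 added 30 min after compound; luciferase reporter driven by HSF1 response element in NIH3T3 cells; actives raise luminescence as potentiators of the MG132 stress response.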 Format: functional.

In another assay the target is Cytochrome P450 2C19 (Homo sapiens, UniProt P33261). The assay is described as follows: Cytochrome panel assay with activity outcomes. Panel member name: p450-cyp2c19 Compounds with AC50 equal or less than 10 uM are considered active. It is filed as functional. The settings on record: read-out: AC50.
Cytochrome P450 2C19, sequence (P33261 whole entry): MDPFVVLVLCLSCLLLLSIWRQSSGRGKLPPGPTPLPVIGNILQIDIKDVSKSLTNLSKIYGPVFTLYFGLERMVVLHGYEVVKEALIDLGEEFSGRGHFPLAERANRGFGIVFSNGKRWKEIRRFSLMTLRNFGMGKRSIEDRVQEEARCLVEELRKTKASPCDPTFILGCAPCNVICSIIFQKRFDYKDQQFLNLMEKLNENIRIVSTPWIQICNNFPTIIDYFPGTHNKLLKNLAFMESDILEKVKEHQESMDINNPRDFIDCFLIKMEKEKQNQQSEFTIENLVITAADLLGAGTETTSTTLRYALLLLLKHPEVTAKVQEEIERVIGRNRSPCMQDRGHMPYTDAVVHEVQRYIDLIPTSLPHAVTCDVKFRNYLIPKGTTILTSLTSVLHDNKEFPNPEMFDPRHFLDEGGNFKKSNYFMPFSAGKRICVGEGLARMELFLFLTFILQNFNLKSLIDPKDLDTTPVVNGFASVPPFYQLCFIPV
A further assay addresses T3, Cytochrome P450 1A2 (Homo sapiens, UniProt P05177).
T3 sequence (P05177 whole entry): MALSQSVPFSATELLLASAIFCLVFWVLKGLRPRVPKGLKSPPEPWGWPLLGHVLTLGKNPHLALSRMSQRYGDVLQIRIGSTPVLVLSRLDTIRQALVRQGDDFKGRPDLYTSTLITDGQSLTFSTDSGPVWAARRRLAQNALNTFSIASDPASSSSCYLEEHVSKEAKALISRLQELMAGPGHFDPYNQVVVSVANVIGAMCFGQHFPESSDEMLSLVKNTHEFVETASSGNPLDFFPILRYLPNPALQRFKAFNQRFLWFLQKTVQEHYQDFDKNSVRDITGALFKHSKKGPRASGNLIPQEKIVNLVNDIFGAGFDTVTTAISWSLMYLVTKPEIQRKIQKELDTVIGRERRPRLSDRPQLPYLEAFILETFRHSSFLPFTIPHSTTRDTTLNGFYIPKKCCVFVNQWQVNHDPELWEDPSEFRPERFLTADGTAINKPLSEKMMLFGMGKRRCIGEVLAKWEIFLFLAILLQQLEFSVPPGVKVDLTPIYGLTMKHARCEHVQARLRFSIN

Cytochrome P450 2D6, sequence (P10635 whole entry): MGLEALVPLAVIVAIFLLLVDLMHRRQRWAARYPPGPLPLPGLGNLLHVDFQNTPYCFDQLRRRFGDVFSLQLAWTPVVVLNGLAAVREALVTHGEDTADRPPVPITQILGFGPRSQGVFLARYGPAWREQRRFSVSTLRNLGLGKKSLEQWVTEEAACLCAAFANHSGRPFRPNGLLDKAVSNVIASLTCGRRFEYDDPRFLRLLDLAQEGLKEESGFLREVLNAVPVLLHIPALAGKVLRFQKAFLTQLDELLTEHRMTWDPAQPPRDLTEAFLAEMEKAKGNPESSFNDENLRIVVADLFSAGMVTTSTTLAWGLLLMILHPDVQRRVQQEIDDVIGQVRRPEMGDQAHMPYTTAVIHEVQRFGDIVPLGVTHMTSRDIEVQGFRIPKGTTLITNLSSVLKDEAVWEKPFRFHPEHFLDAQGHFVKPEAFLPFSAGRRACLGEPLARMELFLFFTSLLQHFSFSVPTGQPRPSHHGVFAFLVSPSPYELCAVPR

For `CC(C)(C)c1nc(NC(=O)Nc2ccccc2)sc1Br`, the EC50 (in general, the concentration giving half of the maximal effect) was 4.45 µM (active) in [1]; > 50 µM (not active) on Streptokinase A; 4.22 µM (active) in assay [2]; > 60 µM (not active) in assay [3]; 6.77 µM (active) in the assay on Streptococcus. `COC(=O)c1ccc(C23CC2(C(NP(=O)(c2ccccc2)c2ccccc2)c2ccccc2)C3)cc1` (stereo not given): the AC50 (commonly the concentration giving half of the maximal activity seen) at Cytochrome P450 2D6 is 31.6 µM (inconclusive). As for `Cc1ccccc1CC(=O)NC1CCCc2ccccc21` (stereo not given), the EC50 in assay [4] was > 260 µM (inactive). Same read-out and setting: in the case of `CC(C)(C)NC(=O)c1ccc2c3c(cccc13)CC2` it was > 260 µM (inactive). Consider `CCCCC#Cc1ccccc1CC(=O)Nc1ccccc1`, for which the concentration at half-maximal activity (AC50) at Cytochrome P450 2D6 was 12.6 µM (inconclusive). The same measure, in the same setting: for `CC[N+](CC)(CCNC(=O)C(=O)NCC[N+](CC)(CC)Cc1ccccc1Cl)Cc1ccccc1Cl` [AMBENONIUM] the value was 39.8 µM (inconclusive).

`O=C(NC1CCCN(Cc2ccccc2F)C1)c1cccs1` (stereo not given): the EC50 in [4] was > 260 µM (inactive). On to `CC(=O)c1cccc(NC(=O)/C(=C\c2ccco2)NC(=O)c2cccs2)c1`, for which the AC50 was 11.2 µM (inconclusive) on Cytochrome P450 2C19, 14.1 µM (inconclusive) at Cytochrome P450 2D6 and 14.1 µM (inconclusive) at Cytochrome P450 1A2.

For `Cc1ccn2c(C(=O)N/N=C\c3ccccc3[N+](=O)[O-])c(C)nc2c1`, in [4], the EC50 is > 260 µM (inactive). Same read-out and setting: in the case of `CCOc1ccc(N2CC(=O)C(c3nc(O)c4ccccc4n3)=C2N)cc1` it was > 260 µM (inactive); in that of `Nc1ccccc1Nc1ccc([N+](=O)[O-])cc1[N+](=O)[O-]`, > 260 µM (inactive).

For the molecule `COc1cccc(-c2ccc3ncnc(NC4CC4)c3c2)c1`, the half-maximal activity concentration (AC50) at Cytochrome P450 2D6 is 25.1 µM (inconclusive).

For the molecule `COc1ccc(CN(CC2CCC(C(=O)O)CC2)C(S)=Nc2cc(Cl)ccc2OC)cc1` (stereo not given), the EC50 in assay [4] is > 260 µM (inactive).

With `CC(C)(C)N(Cc1ccccc1)C(=O)COc1cccnc1[N+](=O)[O-]`, the EC50 (in [1]; on Streptokinase A; in the assay on Streptococcus) was > 150 µM (not active) each time. `O=C(O)COc1ccc(/C=N/Nc2nc(Nc3ccccc3)nc(N3CCCCC3)n2)cc1`: the EC50 in assay [1] is 18.2 µM (active); at Streptokinase A, > 150 µM (not active); in the assay with Streptococcus it was 16.7 µM (active). As for `Cc1ccc(CC2S/C(=N\c3ccccc3)N(c3ccccc3)C2=O)cc1` (stereo not given), in [4], the EC50 was > 260 µM (inactive).

Take `COc1cc(/C=C2/SC(=S)N(Cc3ccccc3)C2=O)ccc1O`: the EC50 in assay [1] is 3.89 µM (active); at Streptokinase A it was > 150 µM (not active); with Streptococcus it was 7.59 µM (active). For `Cc1ccccc1-c1nc2c3ccccc3nc(S)n2n1`, in that order: 14 µM (active), > 150 µM (not active) and > 150 µM (not active). Turning to `CC(=O)N1CCC2(CCN(Cc3ccccc3)CC2)CC1`, the AC50 on Cytochrome P450 2D6 was 15.8 µM (inconclusive). On to `COc1cc2[nH]c(=S)n(Cc3ccco3)c(=O)c2cc1OC`, for which the EC50 in assay [4] is > 260 µM (inactive). Take `Cc1ccc(NC(S)=Nc2nc(CC(=O)Nc3ccccc3)cs2)cc1`: the AC50 at Cytochrome P450 2D6 was 1.78 µM (inconclusive). For `Cc1ccc(CN(C(=O)c2ccco2)C2CCS(=O)(=O)C2)cc1` (stereo not given), the EC50 (in assay [1]; at Streptokinase A; in the assay with Streptococcus) was > 150 µM (not active) each time. For `COc1ccc(/C=N/n2c(C)nc3c4ccccc4nc-3c2O)cc1CN1CCCC(C)(C)C1`, the EC50 in assay [1] was 10.9 µM (active); on Streptokinase A, > 150 µM (not active); in the assay with Streptococcus, > 150 µM (not active). Turning to `COC(=O)/C(=C\C(=O)c1ccccc1)Nc1cccc(C(F)(F)F)c1`, the AC50 at Cytochrome P450 2D6 is 25.1 µM (inconclusive). The same measure, in the same setting: in the case of `Cn1c(C[C@@H](O)c2nc3ccccc3n2C)nc2ccccc21` it was 2.51 µM (inconclusive). For `CC1CCN(c2nc(-c3ccccc3)cc(C(F)(F)F)n2)CC1`, the EC50 in assay [1] is 3.73 µM (active); on Streptokinase A, 9.36 µM (inconclusive); with Streptococcus it was 9.37 µM (active). As to `CCCCCCCCCCCCCC(=O)O[C@H](CC(=O)[O-])C[N+](C)(C)C`, the AC50 on Cytochrome P450 2D6 is 31.6 µM (inconclusive). Turning to `COc1cc(C2CC(c3cccnc3)=NN2c2ccc(F)cc2)cc(OC)c1OC` (stereo not given), the EC50 in assay [4] is 48.5 µM (active). As for `Cc1ccc(/N=C2\SC(C(=O)NCCc3ccccc3)CC(=O)N2C)cc1C` (stereo not given), in assay [4], the EC50 was > 260 µM (inactive). Same read-out and setting: in the case of `CCOC(=O)c1cc(C#N)c(SCc2ccc(C#N)cc2)nc1C` it was 41.9 µM (active). Take `Cc1noc(C)c1-c1nccc(NCc2cccnc2)n1`: the AC50 at Cytochrome P450 2D6 is 20 µM (inconclusive). On the same count and under the same terms, for `Cc1cnc(CNc2ncnc3ccc(-c4ccccc4C)cc23)cn1` the value was 20 µM (inconclusive).

With `CN(CC1CCCO1)S(=O)(=O)c1ccc(C(=O)Nc2ccc(F)cc2)cc1` (stereo not given), the EC50 (in assay [1]; on Streptokinase A; in the assay on Streptococcus) was > 150 µM (not active) each time. Turning to `CCn1c(=O)c(C(=O)NNC(=O)c2ccccc2)c(O)c2ccccc21`, the EC50 in assay [1] was 7.44 µM (active); at Streptokinase A, > 150 µM (not active); with Streptococcus, 20.9 µM (active). In the case of `COc1ccc(S(=O)(=O)n2nc(OC(=O)c3ccccc3Br)cc2N)cc1`, in assay [4], the EC50 is 18.2 µM (active). Regarding `CN(C)c1ncc2nc(CCc3ccccc3)c(=O)n(-c3ccccc3)c2n1`, the AC50 on Cytochrome P450 2C19 is 39.8 µM (inconclusive); at Cytochrome P450 2D6, 2.51 µM (inconclusive). `COC(=O)c1c(C)[nH]c(C(=O)OCC(=O)N(CC(C)C)c2c(N)n(Cc3ccccc3)c(=O)[nH]c2=O)c1C`: the EC50 in assay [1] was 5.83 µM (active); at Streptokinase A, > 150 µM (not active); with Streptococcus, > 150 µM (not active). Turning to `O=C(O)CSc1c(-c2ccccc2)[nH]c2ccccc12`, the EC50 in [4] was > 260 µM (inactive).

The record behind these values is ChEMBL document CHEMBL1201862, “PubChem BioAssay data set” (2004).
